Results as given in ChEMBL document CHEMBL5137041, “Total Syntheses and Cytotoxicity Evaluation of Coryaurone A and Representative Analogues” (J Nat Prod, 2022).

Columns and labels:
HL-60 = assay: Cytotoxicity against human HL-60 cells assessed as cell growth inhibition incubated for 48 hrs by MTS assay; type: functional, cell-based; conditions: HL-60, 48 h
SW480 = assay: Cytotoxicity against human SW480 cells assessed as cell growth inhibition incubated for 48 hrs by MTS assay; type: functional, cell-based; conditions: SW480, 48 h

SMILES	IC50 (HL-60) [µM]	IC50 (SW480) [µM]
CC(C)(O)[C@H]1Cc2c(ccc3c2O/C(=C\c2ccc(O)c(O)c2)C3=O)O1	18	13
CC(C)(O)[C@H]1Cc2c(ccc3c2OCC3=O)O1	> 40	> 40
COc1ccc(/C=C2\Oc3c(ccc4c3C[C@H](C(C)(C)O)O4)C2=O)cc1	> 40	> 40
CC(C)(O)[C@H]1Cc2c(ccc3c2O/C(=C\c2ccc(O)cc2)C3=O)O1	> 40	> 40
CC(C)(O)[C@H]1Cc2c(ccc3c2O/C(=C\c2ccc(O)c(C(=O)O)c2)C3=O)O1	> 40	> 40
CC(C)(O)[C@H]1Cc2c(ccc3c2O/C(=C\c2ccc(O)c(Cl)c2)C3=O)O1	14	35
Cc1cc(/C=C2\Oc3c(ccc4c3C[C@H](C(C)(C)O)O4)C2=O)ccc1O	> 40	11
CC(C)(O)[C@H]1Cc2c(ccc3c2OC(Cc2ccc(O)c(O)c2)C3)O1 (stereo not given in full)	> 40	> 40
CC(C)(O)[C@H]1Cc2c(ccc3c2O/C(=C\c2cccs2)C3=O)O1	> 40	> 40
CC(C)(O)[C@H]1Cc2c(ccc3c2O/C(=C\c2cccc4cccnc24)C3=O)O1	> 40	> 40
CC(C)(O)[C@H]1Cc2c(ccc3c2O/C(=C\c2ccco2)C3=O)O1	28	39
CC(C)(O)[C@H]1Cc2c(ccc3c2O/C(=C\c2ccc(Cl)cc2)C3=O)O1	> 40	7.7
COc1ccc(/C=C2\Oc3c(ccc4c3C[C@H](C(C)(C)O)O4)C2=O)cc1O	3.9	20
CC(C)(O)[C@H]1Cc2c(ccc3c2O/C(=C\c2ccccc2)C3=O)O1	> 40	> 40
COc1cc(/C=C2\Oc3c(ccc4c3C[C@H](C(C)(C)O)O4)C2=O)cc(OC)c1OC	22	> 40
CC(C)(O)[C@H]1Cc2c(ccc3c2O/C(=C\c2ccc([N+](=O)[O-])cc2)C3=O)O1	> 40	9.2
CC(C)(O)[C@H]1Cc2c(ccc3c2O/C(=C\c2ccc4[nH]ccc4c2)C3=O)O1	> 40	> 40
CC(C)=CCc1c(O)ccc2c1O/C(=C\c1ccc(O)c(O)c1)C2=O [LICOAGROAURONE]	19	8.2
CC(C)(O)[C@H]1Cc2c(ccc3c2O/C(=C\c2cc([N+](=O)[O-])ccc2O)C3=O)O1	12	23
CC(C)(O)[C@H]1Cc2c(ccc3c2O/C(=C\c2ccc(C(F)(F)F)cc2)C3=O)O1	16	> 40
